Key:
[1] = system: salivary glands (submandibular, parotid); design: species or system human; conditions: in vivo
[2] = system: salivary glands; conditions: in vivo; cited from earlier work

botulinum toxin type A
uptake of 18F-PSMA in the treated glands [1]: significantly reduced
uptake of 68Ga-PSMA in the glands treated with botulinum toxin [1]: significantly reduced
uptake of 177Lu-PSMA in the treated glands [1]: significantly reduced
uptake of 225Ac-PSMA-617 in the treated glands [1]: significantly reduced
onset of action [2]: around six

Reference: US20250064904A1 (priority 2019, published 2025)
